# Results: patent US8232318B2, “Approaches to treat cancer using HB-EGF inhibitors” (The General Hospital Corporation, priority 2009, dated 2012)
# Entries after “also recorded” stand apart in the source; their conditions may differ.
# Columns and labels:
# EJ cells = test: Clonogenic assay of EJ cells; assay type: cell-based, human; conditions: for colony growth: EJ cells, 5 μM, grown for two weeks
# Experimental: Aliquots of one hundred EJ cells were plated out in petridish (60 mm size) and allowed to establish themselves. […] After exposure, the cells were grown for two weeks without changing the medium, and the number of cell colonies were counted.
# [1] = mouse ear inflammatory test; cited from earlier work
# [2] = system: human normal (non-cancerous) breast epithelial cells; test: Toxicity in human primary normal (non-cancerous) cells; assay type: cell-based; conditions: 5 and 10 microM (Iressa 5 microM), 24-96 hours, Alamar Blue and cell death assays
# Experimental: The cultures were subsequently stained with crystal-violet blue to evaluate the number of live cells. […] The number of dead cells was determined by Alamar Blue staining as well as Cyto-Flow-cell death assays from Promega (Madison, Wis.).
# [3] = system: phospho-EGFR, phospho-Her3/ErbB3 and phospho-AKT; test: EGFR signaling in Iressa resistant SKBR3 cells by Western blot; assay type: cell-based, human; conditions: longer exposure (up to 96 hours)
# Experimental: After treatment, total cell lysates were isolated and analyzed by Western blot analysis. The cells were evaluated for the presence of phospho-EGFR, phospho-Her3/ErbB3 and phospho-AKT.
# mammary tumor = test: Spontaneous tumor model (MMTV-PyVT transgenic mice); assay type: in vivo; conditions: 5 mg/kg daily i.p. for 28 days, vs DMSO
# Source text: Mice with a spontaneous tumor model (MMTV-PvVT (FVB/N-Tg) transgenic mice; NCI repository) develop multifocal mammary tumor (from hyperplasia to metastatic) with a high incidence of metastasis. This mouse model has been widely used for the correlation studies of human cancer (Guy et al., Moll. Cell. Biol. 12: 954-961, 1992). In addition, this mouse model has been used to evaluate the effectiveness of potential drug therapies. Generally, due to aggressiveness of tumor growth and spread in this mouse-model, only a combination of chemo-drugs is effective in tumor growth inhibition in this mouse model.
# MMTV-PyVT mice were maintained until mammary tumor size reached to 6 mm, and then treated with myrsinoic acid A (NP2008) (5 mg/kg) or vehicle (DMSO) daily by i.p. for 28 days.
# EJ cells or A549 cells = test: Lung or bladder tumor xenograft in nude mice; assay type: in vivo; conditions: intraperitoneally 1 mg/kg every 48 hours for 42 days, vs control DMSO-administered mice
# Experimental: Lung or bladder tumor xenograft-bearing mice were treated with myrsinoic acid A to evaluate its in vivo anti-tumor effect. A total of 2×10^6 EJ cells or A549 cells were implanted subcutaneously on opposite site flanks in each nude/nude mice (Charles River, Mass.). There were six mice in each group. When tumor masses grew to ˜2-5 mm in diameter, myrsinoic acid A (NP2008) was administered intraperitoneally (total 1 mg/kg) every 48 hours for 42 days.
# EJ cancer cells = test: Cytotoxicity assay (sulforhodamine B) in EJ cancer cells; assay type: cell-based, human; conditions: high and low confluent density, FIG. 10 legend
# Experimental: DMSO treatment was used as a control. Cells were stained with 0.4% sulforhodamine B three days after treatment. The results are shown in FIG. 10 A (cells started with higher confluent density) and FIG. 10 B (treatment experiments performed with lower confluent density). FIG. 10 C (low confluent) and FIG. 10 D show the result of a time curve experiment wherein aliquots of cells were stained at 24, 48, 72 and 96 hours.
# [4] = system: human cancer cells including breast cancer cells, bladder cancer cells, colon cancer cells, and lung cancer cells; test: Induction of cell death/apoptosis in a panel of human cancer cells; assay type: cell-based
# Source text: We evaluated the ability of myrsinoic acid A (NP2008) to suppress cell growth and induce apoptosis in a panel of human cancer cells.
# DNA polymerases = conditions: cited from earlier work
# HB-EGF = molecular target: T1, HB-EGF (Homo sapiens, UniProt Q99075); test: Surface Plasmon Resonance (Biacore) binding to immobilized HB-EGF; conditions: SPR, compound 0.78 uM-50 uM, 25° C.
# T1 construct: lyophilized HB-EGF protein (R&D Systems) was dissolved in either water or PBS buffer; purchased R&D Systems
# T1 sequence (Q99075 63-148 limits assumed): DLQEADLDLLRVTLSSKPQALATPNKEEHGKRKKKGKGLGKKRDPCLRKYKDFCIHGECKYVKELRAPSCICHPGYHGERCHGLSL
# Experimental: A Biacore™ T100 (GE Healthcare, Uppsala, Sweden) was used to perform the Surface Plasmon Resonance (SPR) experiments. Sensor surface preparation and interaction analyses experiments were performed at 25° C. Prior to surface preparation, lyophilized HB-EGF protein (R&D Systems) was dissolved in either water or PBS buffer, at pH 7.4 and protein purity determined by Nu-Page 4-12% Bis-Tris gel in MOPS (3-(N-Morpholino)-propanesulfonic acid) buffer with a silver stain sensor preparation. HB-EGF was immobilized onto series S sensor chip CM4 via a standard N-ethyl-N′-(dimethyl-aminopropyl)carbodiimide/N-hydroxysuccinimide (EDC/NHS) amine coupling procedures. HB-EGF was diluted to 10 μg/mL in 10 mM sodium acetate pH5.5 for these procedures and resultant immobilization levels were 1000-1200 R.U.s. (R.U.: […]). Control surfaces were prepared similarly without protein derivatization and utilized as a reference surfaces for compound binding experiments. For compound interaction analyses, 0.01 M Hepes, pH7.4, 0.15 M NaCl, 0.05% Surfactant P20 and 5% DMSO was used. Compound samples were prepared by serial dilution in the range 0.78 uM-50 uM and flowed over control and derivatized surfaces for two minutes at a flow-rate of 80 μL/min. Zero concentration blank buffer cycles were included as negative control samples. […]
# [5] = system: human cancer cells including breast cancer cells, bladder cancer cells, colon cancer cells, and lung cancer cells; test: Tumor cell growth inhibition / viable cells by crystal-violet staining; assay type: cell-based
# Source text: The ability to suppress the growth of cancer cells was again seen at micromolar potencies (2.5-10 microM) and was concentration dependent. […] Viable cells are shown with crystal-violet cell staining.
# methioninase = conditions: cited from earlier work
# [6] = concentration dependent, wildtype or mutated p53 cell lines
compound,measurement,setting,value
"COc1cc2ncnc(Nc3ccc(F)c(Cl)c3)c2cc1OCCCN1CCOCC1 [Iressa, reference compound]",colony growth,EJ cells,did not show any colony growth
"CC(C)=CCC/C(C)=C/Cc1cc(C(=O)O)cc(CC=C(C)C)c1O [myrsinoic acid A, 3-geranyl-4-hydroxy-5-(3′-methyl-2′butenyl)-benzoic acid]",anti-inflammatory activity,[1],act as anti-inflammatory compounds
same,cytotoxicity in normal cells,[2],less cytotoxicity in normal cells than Iressa; also recorded: non-toxic
same,"phospho-EGFR, phospho-HER3 and phospho-AKT on longer exposure",[3],long term suppression
same,tumor mass,mammary tumor,significant reduction in tumor mass
same,tumor growth,EJ cells or A549 cells,significant tumor-growth suppression
same,suppression of cancer cell proliferation compared with Iressa,EJ cancer cells,more potent suppressor of cancer cell proliferation than Iressa
same,cell death,[4]; EJ human bladder cancer cells and HCT116 human colon cancer cells (FIG. 5),induces cell death
same,potencies at which apoptosis is induced,[4]; [6],2.5 to 10 µM
same,DNA polymerase inhibition,DNA polymerases,inhibitor of some DNA polymerases
same,binding to HB-EGF,HB-EGF,binding
same,colony growth,EJ cells,did not show any colony growth
same,suppression of growth of EJ cells compared with radiation or Iressa,"EJ cells; clonogenic assay, FIG. 9 legend",more effective
same,number of viable cells,"[5]; EJ, HCT116, MDA-MD486 and A549 cells, crystal-violet staining (FIG. 6)",decrease in the number viable cells
same,potencies at which growth of cancer cells is suppressed,[5]; [6],2.5 to 10 µM
CC(C)=CCCC(C)(O)C1Cc2cc(C(=O)O)cc(CC=C(C)C)c2O1 (centres unmarked) [myrsinoic acid B],anti-inflammatory activity,[1],act as anti-inflammatory compounds
same,methioninase inhibition,methioninase,methioninase inhibitor
CC(C)=CCC[C@]1(C)Oc2c(CC=C(C)C)cc(C(=O)O)cc2C[C@@H]1O [myrsinoic acid C],anti-inflammatory activity,[1],act as anti-inflammatory compounds
CC(C)=CCC/C(C)=C/Cc1cc(C(=O)O)cc(C/C=C(\C)CCC=C(C)C)c1O [myrsinoic acid E],anti-inflammatory activity,[1],act as anti-inflammatory compounds
CC(C)=CC/C=C(\C)C1Cc2cc(C(=O)O)cc(CC=C(C)C)c2O1 (centres unmarked) [myrsinoic acid F],anti-inflammatory activity,[1],act as anti-inflammatory compounds; also recorded: most potent anti-inflammatory compound
